Experimental data reported in US20190240225A1, “COMBINATION OF A BCL-2 INHIBITOR AND A MCL-1 INHIBITOR, USES AND PHARMACEUTICAL COMPOSITIONS THEREOF” (LES LABORATOIRES SERVIER, priority 2016, published 2019).
Where two headings read alike, the source gives them in different places.

Tests used:
Toledo xenograft = test: DLBCL Toledo xenograft model in mice; type: in vivo; conditions: SCID/beige mice; Compound 1, HCl 100 mg/kg QW po; Compound 3 25 mg/kg QW iv
Experimental: The xenograft model was established by direct subcutaneous (sc) implantation of 3 million Toledo cell suspension with 50% matrigel into the subcutaneous area of SCID/beige mice. All procedures were carried out using aseptic technique. The mice were anesthetized during the entire period of the procedure.
In general, a total of 6 animals per group were enrolled in efficacy study. For single-agent and combination studies, animals were dosed via oral gavage (po) for Compound 1 and intravenously (iv) via tail vein for Compound 3. Compound 1, HCl was formulated as solution in PEG300/EtOH/water (40/10/50), and Compound 3 was placed in solution. When tumors reached approximately 220 mm^3 at day 26 post cell implantation, tumour-bearing mice were randomized into treatment groups.
Animals were weighed at dosing day(s) and dose was body weight adjusted, dosing volume was 10 ml/kg. Tumour dimensions and body weights were collected at the time of randomization and twice weekly thereafter for the study duration. The following data was provided after each day of data collection: incidence of mortality, individual and group average body weights, and individual and group average tumour volume.
For the study in Toledo model, treatments were initiated on day 26 following cell implantation, when the average tumour volume was ˜218 to 228 mm^3.
The % change in body weight was calculated as (BWcurrent−BWinitial)/(BWinitial)×100. Data is presented as percent body weight change from the day of treatment initiation.
Percent treatment/control (T/C) values were calculated using the following formula:
% Regression=100×ΔT/T0 if ΔT<0
where: T=mean tumour volume of the drug-treated group on the final day of the study; ΔT=mean tumour volume of the drug-treated group on the final day of the study—mean tumour volume of the drug-treated group on initial day of dosing; T0=mean tumour volume of the drug-treated group on the day of cohort; C=mean tumour volume of the control group on the final day of the study; and ΔC=mean tumour volume of the control group on the final day of the study—mean tumour volume of the control group on initial day of dosing.
All data were expressed as mean±standard error of the mean (SEM). Delta tumour volume and percent body weight changes were used for statistical analysis. Between group comparisons were carried out using the One way ANOVA followed by a post hoc Tukey test. For all statistical evaluations, the level of significance was set at p<0.05. Significance compared to the vehicle control group is reported unless otherwise stated.

DB = test: CellTiterGlo viability, DLBCL cell line; type: cell-based; conditions: for Max Inh / IC50: DB, single agent, 2 days; for IC50: read-out: Abs IC50; for growth inhibition: DB cells, second lowest concentration tested of each compound (FIG. 4A)
Experimental: In addition, all media contained penicillin (100 IU/ml), streptomycin (100 μg/ml) and L-glutamine (2 mM). Unless otherwise mentioned, culture media and supplements were from Amimed/Bioconcept (Allschwil, Switzerland).
Cell lines were cultured at 37° C. in a humidified atmosphere containing 5% CO2 and expanded in T-75 flasks. In all cases cells were thawed from frozen stocks, expanded through ≥1 passage using appropriate dilutions, counted and assessed for viability using a CASY cell counter (Omni Life Science, Bremen, Germany) prior to plating 25 ul/well at the densities indicated in Table 1 into 384-well plates (Corning). All cell lines were determined to be free of mycoplasma contamination by PCR assay performed at Idexx Radii (Columbia, Mo., USA) and misidentification ruled out by assessment of a panel of 48 Small Nucleotide Polymorphisms (SNPs) at Asuragen (Austin, Tex., USA) or in-house.
Stock solutions of compounds were prepared at a concentration of 10 mM in DMSO (Sigma) and stored at −20° C. Where necessary to afford a full dose-response curve, the stock solutions were pre-diluted in DMSO to 1′000-fold the desired start concentration (see Table 2). On the day after cell seeding, eight 2.5-fold serial dilutions of each compound were dispensed, either individually or in all possible permutations in a checkerboard fashion, directly into the cell assay plates using a non-contact 300D Digital Dispenser (ILCAN, Mannedorf, Switzerland) as outlined in FIG. 4. The final concentration of DMSO was 0.2% in all wells.
Effects of the single agents as well as their checkerboard combinations on cell viability were assessed after 2 days of incubation at 37° C./5% CO2 by quantification of cellular ATP levels using CellTiterGlo (Promega, Madison, Wis., USA) at 25 μL reagent/well and n=2 replicate plates per condition. Luminescence was quantified on a M1000 multipurpose platereader (ILCAN, Mannedorf, Switzerland). The number/viability of cells at time of compound addition was likewise assessed and used to assess the degree of the population doubling time of a particular cell line.
Single agent IC50s were calculated using standard four-parametric curve fitting. […] All calculations were performed using the Combination Analysis Module in-house software. IC50 are defined as the compound concentration at which the CTG signal is reduced to 50% of that measured for the vehicle (DMSO) control.

OCI-AML3 = test: CellTiterGlo viability, AML cell line; type: cell-based; conditions: for growth inhibition: third lowest concentration tested
Experimental: In addition, all media contained penicillin (100 IU/ml), streptomycin (100 μg/ml) and L-glutamine (2 mM).
Cell lines were cultured at 37° C. in a humidified atmosphere containing 5% CO2 and expanded in T-150 flasks. In all cases cells were thawed from frozen stocks, expanded through ≥1 passage using appropriate dilutions, counted and assessed for viability using a CASY cell counter prior to plating 150 ul/well at the densities indicated in Table 1 into 96-well plates. All cell lines were determined to be free of mycoplasma contamination in-house.
Stock solutions of compounds were prepared at a concentration of 5 mM in DMSO and stored at −20° C.
In order to analyse the activity of the compounds as single agents, cells were seeded and treated with nine 2-fold serial dilutions of each compound dispensed individually directly into the cell assay plates. Effects of the compounds on cell viability were assessed after 3 days of incubation at 37° C./5% CO2 by quantification of cellular ATP levels using CellTiterGlo at 75 μL reagent/well. All the experiments were performed in triplicates. Luminescence was quantified on a multipurpose plate reader. Single agent IC50s were calculated using standard four-parametric curve fitting. IC50 is defined as the compound concentration at which the CTG signal is reduced to 50% of that measured for the vehicle (DMSO) control.
In order to analyse the activity of the compounds in combination, cells were seeded and treated with seven or eight 3.16-fold serial dilutions of each compound dispensed, either individually or in all possible permutations in a checkerboard fashion, directly into the cell assay plates as indicated in FIG. 9. Effects of the single agents as well as their checkerboard combinations on cell viability were assessed after 3 days of incubation at 37° C./5% CO2 by quantification of cellular ATP levels using CellTiterGlo at 75 μL reagent/well. Two independent experiments, each one performed in duplicates, were performed. Luminescence was quantified on a multipurpose plate reader.
Potential synergistic interactions between compound combinations were assessed using the Excess Inhibition 2D matrix according to the Loewe additivity model and are reported as Synergy Score (Lehar et al, Nat Biotechnol. 2009 July; 27(7): 659-666). All calculations were performed using Clalice™ Bioinformatics Software.

[1] = Compound 3 / Compound 1 experiment (FIG. 9A)

With `Cl.O=C(c1cc(-c2cc3c(cc2C(=O)N2Cc4ccccc4C[C@H]2CN2CCOCC2)OCO3)n2c1CCCC2)N(c1ccccc1)c1ccc(O)cc1` [Compound 1, HCl, N-(4-hydroxyphenyl)-3-{6-[((3S)-3-(4-morpholinylmethyl)-3,4-dihydro-2(1H)-isoquinolinyl)carbonyl]-1,3-benzodioxol-5-yl}-N-phenyl-5,6,7,8-tetrahydro-1-indolizine carboxamide hydrochloride] the “T/C % at day 42” value (Toledo xenograft) was 37%, the “mean body weight change” value (Toledo xenograft) was 1.081% and the “Max Inh” value (DB) was 95.7%. For the same compound, the IC50 (DB; Homo sapiens, 48 h) was 2760 nM and the IC50 (OCI-AML3; Homo sapiens, OCI-AML-3, 72 h, single agent, 3 days) was 8090 nM.

With `O=C(c1cc(-c2cc3c(cc2C(=O)N2Cc4ccccc4C[C@H]2CN2CCOCC2)OCO3)n2c1CCCC2)N(c1ccccc1)c1ccc(O)cc1` [Compound 1, N-(4-hydroxyphenyl)-3-{6-[((3S)-3-(4-morpholinylmethyl)-3,4-dihydro-2(1H)-isoquinolinyl)carbonyl]-1,3-benzodioxol-5-yl}-N-phenyl-5,6,7,8-tetrahydro-1-indolizine carboxamide] the “T/C % at day 42” value (Toledo xenograft) was 37%, the growth inhibition (DB) was 2% and the growth inhibition (OCI-AML3; [1]) was 1%.

`COc1ccccc1-c1nccc(COc2ccccc2C[C@@H](Oc2ncnc3sc(-c4ccc(F)cc4)c(-c4ccc(OCCN5CCN(C)CC5)c(Cl)c4C)c23)C(=O)O)n1` [Compound 3, (2R)-2-{[(5Sa)-5-{3-chloro-2-methyl-4-[2-(4-methylpiperazin-1-yl)ethoxy]phenyl}-6-(4-fluorophenyl)thieno[2,3-d]pyrimidin-4-yl]oxy}-3-(2-{[2-(2-methoxyphenyl)pyrimidin-4-yl]methoxy}phenyl)propanoic acid] was tested, and the “T/C % at day 42” value (Toledo xenograft) was 102%, the “mean body weight change” value (Toledo xenograft) was 2.3% and the growth inhibition (DB) was 1%. The “Max Inh” value (DB) was 99.2%, the IC50 (DB) was 12.9 nM and the IC50 (OCI-AML3; single agent, 3 days) was 146 nM. The “Mean of Max Inh” value (OCI-AML3; single agent, combination (c) experiment, 3 days) was 100.0%, the growth inhibition (OCI-AML3; [1]) was 5% and the growth inhibition (OCI-AML3; Compound 4, HCl / Compound 3 experiment) was 40%. The growth inhibition (OCI-AML3; MCL1 inhibitor / ABT-199 experiment (FIG. 13)) was 26%.
